From ChEMBL document CHEMBL1138929, “Development of peptidic dopamine transporter inhibitors via aromatic modification-mediated conformational restriction” (J Med Chem, 2006)
Starred links: 1 amine or outer side, 2 acyl side, 3 side chain; linkers in the order of their positions; H or OH if unused. Non-standard residues stand in square brackets, D forms with d. Residues, ends and D or L forms follow the SMILES beside them. *: point of attachment. X1 = O=C([C@H](Cc1ccc(O)c(Cc2ccccc2)c1)N[*:1])[*:2]; Bpa = N[C@@H](Cc1ccc(C(=O)c2ccccc2)cc1)C(=O)O; Bip = N[C@@H](Cc1ccc(-c2ccccc2)cc1)C(=O)O; 1Nal = N[C@@H](Cc1cccc2ccccc12)C(=O)O; 2Nal = N[C@@H](Cc1ccc2ccccc2c1)C(=O)O; Bn = c1ccc(C*)cc1

Assays:
[1] = molecular target: T1, Sodium-dependent dopamine transporter (Rattus norvegicus, UniProt P23977); assay: Inhibition of rat DAT-mediated [3H]dopamine uptake in CHO cells; assay type: cell-based
Mus musculus [2] = assay: Effect on 10 mg/kg cocaine-induced place preference in BALB/c mouse at 10 mg/kg, sc measured as pre and procondition time difference; assay type: functional
Mus musculus [3] = assay: Effect on cocaine-induced place preference in BALB/c mouse at 10 mg/kg, sc measured as pre and procondition time difference; assay type: functional; settings: route subcutaneous
Mus musculus [4] = assay: Effect on place preference in BALB/c mouse at 20 mg/kg, sc measured as pre and procondition time difference; assay type: functional; settings: route subcutaneous
[5] = molecular target: Sodium-dependent serotonin transporter (Rattus norvegicus, UniProt P31652); assay: Inhibition of rat SERT-mediated serotonin uptake in CHO cells; assay type: cell-based
[6] = molecular target: Sodium- and chloride-dependent GABA transporter 1 (Mus musculus, UniProt P31648); assay: Inhibition of mouse GAT1-mediated gamma-aminobutyric acid uptake in CHO cells; assay type: cell-based
[7] = molecular target: Sodium-dependent noradrenaline transporter (Rattus norvegicus) (UniProt P31652); assay: Inhibition of rat NET-mediated norepinephrine uptake in CHO cells; settings: cho
[8] = molecular target: T1, Sodium-dependent dopamine transporter; assay: Inhibition of [3H]WIN-35428 binding to rat DAT expressed in D8 cells; assay type: cell-based
[9] = molecular target: Sodium-dependent noradrenaline transporter, Rattus norvegicus; assay: Inhibition of rat NET-mediated norepinephrine uptake in CHO cells
Mus musculus [10] = assay: Effect on place preference in BALB/c mouse at 10 mg/kg measured as pre and procondition time difference; assay type: functional
[11] = substrate: CC(c1ccc(-c2ccc(C[C@H](N)C(=O)O)cc2)cc1)[C@H](N)C(=O)N[C@@H](Cc1ccc(O)cc1)C(=O)N[C@H](C(=O)N1CCC[C@H]1C(=O)N[C@H](C(=O)NCC(=O)O)[C@@H](C)OCc1ccccc1)[C@@H](C)O; settings: Rattus norvegicus; D8; 250 nM
Description: Inhibition of rat DAT-mediated [3H]dopamine accumulation in D8 cells at 250 nM

[12] = substrate: CC(c1ccc(-c2ccc(C[C@H](N)C(=O)O)cc2)cc1)[C@H](N)C(=O)N[C@@H](Cc1ccc(O)cc1)C(=O)N[C@H](C(=O)N1CCC[C@H]1C(=O)N[C@H](C(=O)NCC(=O)O)[C@@H](C)OCc1ccccc1)[C@@H](C)O; settings: Rattus norvegicus; D8; 600 nM
Description: Inhibition of rat DAT-mediated [3H]dopamine accumulation in D8 cells at 600 nM

Chain of Sodium-dependent serotonin transporter (P31652 whole entry): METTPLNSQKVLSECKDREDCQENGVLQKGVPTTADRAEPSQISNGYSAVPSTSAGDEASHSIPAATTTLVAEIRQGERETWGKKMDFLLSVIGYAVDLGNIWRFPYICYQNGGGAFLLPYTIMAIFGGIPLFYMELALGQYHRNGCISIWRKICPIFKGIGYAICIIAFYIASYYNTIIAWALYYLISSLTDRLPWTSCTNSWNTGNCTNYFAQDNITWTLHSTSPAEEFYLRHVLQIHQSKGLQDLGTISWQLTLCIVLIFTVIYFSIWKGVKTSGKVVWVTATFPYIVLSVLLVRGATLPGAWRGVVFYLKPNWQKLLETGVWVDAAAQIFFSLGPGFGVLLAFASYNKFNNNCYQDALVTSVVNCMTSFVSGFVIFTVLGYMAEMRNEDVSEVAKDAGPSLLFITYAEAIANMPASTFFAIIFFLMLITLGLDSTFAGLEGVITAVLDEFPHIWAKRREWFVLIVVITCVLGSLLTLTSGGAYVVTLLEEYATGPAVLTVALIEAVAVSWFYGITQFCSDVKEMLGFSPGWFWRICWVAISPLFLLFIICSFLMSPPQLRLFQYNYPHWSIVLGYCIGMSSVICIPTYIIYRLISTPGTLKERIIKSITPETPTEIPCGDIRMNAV
Chain of Sodium-dependent noradrenaline transporter (Rattus norvegicus) (P31652 whole entry, looked up): as the sequence (P31652 whole entry) above

Molecule: C[C@@H](O)[C@H](NC(=O)[C@H](CCCCN)NC(=O)[C@@H]1CCCN1C(=O)[C@@H](NC(=O)[C@H](Cc1ccc(O)cc1)NC(=O)[C@H](Cc1ccccc1)NC(=O)[C@@H](N)Cc1ccccc1)[C@@H](C)O)C(=O)O (H-FFYTPKT-OH)
- IC50 [1]: > 1000 µM

Molecule: C[C@@H](O)[C@H](NC(=O)[C@H](Cc1ccc(O)cc1)NC(=O)[C@@H](N)Cc1cccc2ccccc12)C(=O)N1CCC[C@H]1C(=O)N[C@@H](CCCCN)C(=O)N[C@H](C(=O)NCC(=O)O)[C@@H](C)OCc1ccccc1 (H-[1Nal]YTPKT(Bn)G-OH)
- IC50 [1]: 199 µM

Molecule: C[C@@H](O)[C@H](NC(=O)[C@H](Cc1ccc(O)cc1)NC(=O)[C@@H](N)Cc1ccc2ccccc2c1)C(=O)N1CCC[C@H]1C(=O)N[C@@H](CCCCN)C(=O)N[C@H](C(=O)NCC(=O)O)[C@@H](C)OCc1ccccc1 (H-[2Nal]YTPKT(Bn)G-OH)
- IC50 [1]: 184 µM

Molecule: C[C@H](NC(=O)[C@@H](N)Cc1ccc(-c2ccccc2)cc1)C(=O)N[C@H](C(=O)N1CCC[C@H]1C(=O)N[C@@H](CCCCN)C(=O)N[C@H](C(=O)NCC(=O)O)[C@@H](C)OCc1ccccc1)[C@@H](C)O (H-[Bip]ATPKT(Bn)G-OH)
- IC50 ([1]; cho): 173 µM

Molecule: C[C@H](NC(=O)[C@H](Cc1ccc(O)cc1)NC(=O)[C@@H](N)Cc1ccc(-c2ccccc2)cc1)C(=O)N1CCC[C@H]1C(=O)N[C@@H](CCCCN)C(=O)N[C@H](C(=O)NCC(=O)O)[C@@H](C)OCc1ccccc1 (H-[Bip]YAPKT(Bn)G-OH)
- IC50 ([1]; cho): 11 µM

Molecule: C[C@@H](O)[C@H](NC(=O)[C@H](CCCCN)NC(=O)[C@@H]1CCCN1C(=O)[C@@H](NC(=O)[C@H](Cc1ccc(O)cc1)NC(=O)[C@@H](N)Cc1ccc(-c2ccccc2)cc1)[C@@H](C)OCc1ccccc1)C(=O)NCC(=O)O (H-[Bip]YT(Bn)PKTG-OH)
- IC50 ([1]; cho): 20 µM

Molecule: C[C@H](NC(=O)[C@@H](NC(=O)[C@H](Cc1ccc(O)cc1)NC(=O)[C@@H](N)Cc1ccc(-c2ccccc2)cc1)[C@@H](C)O)C(=O)N[C@@H](CCCCN)C(=O)N[C@H](C(=O)NCC(=O)O)[C@@H](C)OCc1ccccc1 (H-[Bip]YTAKT(Bn)G-OH)
- IC50 ([1]; cho): > 1000 µM

Molecule: C[C@H](NC(=O)[C@@H](NC(=O)[C@H](Cc1ccc(O)cc1)NC(=O)[C@@H](N)Cc1ccc(-c2ccccc2)cc1)[C@@H](C)O)C(=O)N[C@H](C(=O)NCC(=O)O)[C@@H](C)OCc1ccccc1 (H-[Bip]YTAT(Bn)G-OH) [listing 1 of 2 here]
- IC50 ([1]; cho): > 1000 µM

Molecule: C[C@H](NC(=O)[C@@H](NC(=O)[C@H](Cc1ccc(O)cc1)NC(=O)[C@@H](N)Cc1ccc(-c2ccccc2)cc1)[C@@H](C)O)C(=O)N[C@H](C(=O)NCC(=O)O)[C@@H](C)OCc1ccccc1 (H-[Bip]YTAT(Bn)G-OH) [listing 2 of 2 here]
- Activity (Mus musculus [2]): 200 s
- Activity (Mus musculus [3]): 209 s
- Activity (Mus musculus [4]): -14 s

Molecule: C[C@H](NC(=O)[C@@H]1CCCN1C(=O)[C@@H](NC(=O)[C@H](Cc1ccc(O)cc1)NC(=O)[C@@H](N)Cc1ccc(-c2ccccc2)cc1)[C@@H](C)O)C(=O)N[C@H](C(=O)NCC(=O)O)[C@@H](C)OCc1ccccc1 (H-[Bip]YTPAT(Bn)G-OH)
- IC50 ([1]; cho): 1.7 µM

Molecule: C[C@@H](O)[C@H](NC(=O)[C@H](Cc1ccc(O)cc1)NC(=O)[C@@H](N)Cc1ccc(-c2ccccc2)cc1)C(=O)N1CCC[C@H]1C(=O)N[C@@H](CCCCN)C(=O)N[C@H](C(=O)NCC(=O)O)[C@@H](C)OCc1ccccc1 (H-[Bip]YTPKT(Bn)G-OH)
- IC50 ([1]; cho): 1.8 µM

Molecule: C[C@@H](O)[C@H](NC(=O)[C@H](CCCCN)NC(=O)[C@@H]1CCCN1C(=O)[C@@H](NC(=O)[C@H](Cc1ccc(O)cc1)NC(=O)[C@@H](N)Cc1ccc(-c2ccccc2)cc1)[C@@H](C)O)C(=O)O (H-[Bip]YTPKT-OH)
- IC50 ([1]; cho): 19 µM
- IC50 ([5]; cho): > 1000 µM
- IC50 ([6]; cho): > 1000 µM
- IC50 [7]: > 1000 µM

Molecule: C[C@@H](O)[C@H](NC(=O)[C@H](Cc1ccc(O)cc1)NC(=O)[C@@H](N)Cc1ccc(-c2ccccc2)cc1)C(=O)N1CCC[C@H]1C(=O)N[C@H](C(=O)NCC(=O)O)[C@@H](C)OCc1ccccc1 (H-[Bip]YTPT(Bn)G-OH) [listing 1 of 2 here]
- IC50 [1]: 0.3 µM
- IC50 [5]: 110 µM
- IC50 [6]: > 1000 µM
- IC50 [8]: 0.494 µM
- IC50 [9]: 90 µM

Molecule: C[C@@H](O)[C@H](NC(=O)[C@H](Cc1ccc(O)cc1)NC(=O)[C@@H](N)Cc1ccc(-c2ccccc2)cc1)C(=O)N1CCC[C@H]1C(=O)N[C@H](C(=O)NCC(=O)O)[C@@H](C)OCc1ccccc1 (H-[Bip]YTPT(Bn)G-OH) [listing 2 of 2 here]
- Activity (Mus musculus [2]): 78 s
- Activity (Mus musculus [3]): 61 s
- Activity (Mus musculus [4]): -16 s

Molecule: C[C@@H](O)[C@H](NC(=O)[C@H](CCCCN)NC(=O)[C@@H]1CCCN1C(=O)[C@@H](NC(=O)[C@H](Cc1ccc(O)c(Cc2ccccc2)c1)NC(=O)[C@@H](N)Cc1ccc(-c2ccccc2)cc1)[C@@H](C)O)C(=O)O (H-[Bip][X1]TPKT-OH)
- IC50 ([1]; cho): 10 µM

Molecule: C[C@@H](O)[C@H](NC(=O)[C@H](Cc1ccc(O)cc1)NC(=O)[C@@H](N)Cc1ccc(C(=O)c2ccccc2)cc1)C(=O)N1CCC[C@H]1C(=O)N[C@@H](CCCCN)C(=O)N[C@H](C(=O)NCC(=O)O)[C@@H](C)OCc1ccccc1 (H-[Bpa]YTPKT(Bn)G-OH)
- IC50 [1]: 239 µM

Molecule: COC(=O)[C@H]1[C@@H](OC(=O)c2ccccc2)C[C@@H]2CC[C@H]1N2C [COCAINE]
- Activity (Mus musculus [10]): 194 s

B1: Sodium-dependent dopamine transporter (Rattus norvegicus), P23977 (protein)
chain: MSKSKCSVGPMSSVVAPAKESNAVGPREVELILVKEQNGVQLTNSTLINPPQTPVEAQERETWSKKIDFLLSVIGFAVDLANVWRFPYLCYKNGGGAFLVPYLLFMVIAGMPLFYMELALGQFNREGAAGVWKICPVLKGVGFTVILISFYVGFFYNVIIAWALHYFFSSFTMDLPWIHCNNTWNSPNCSDAHASNSSDGLGLNDTFGTTPAAEYFERGVLHLHQSRGIDDLGPPRWQLTACLVLVIVLLYFSLWKGVKTSGKVVWITATMPYVVLTALLLRGVTLPGAMDGIRAYLSVDFYRLCEASVWIDAATQVCFSLGVGFGVLIAFSSYNKFTNNCYRDAIITTSINSLTSFSSGFVVFSFLGYMAQKHNVPIRDVATDGPGLIFIIYPEAIATLPLSSAWAAVFFLMLLTLGIDSAMGGMESVITGLVDEFQLLHRHRELFTLGIVLATFLLSLFCVTNGGIYVFTLLDHFAAGTSILFGVLIEAIGVAWFYGVQQFSDDIKQMTGQRPNLYWRLCWKLVSPCFLLYVVVVSIVTFRPPHYGAYIFPDWANALGWIIATSSMAMVPIYATYKFCSLPGSFREKLAYAITPEKDHQLVDRGEVRQFTLRHWLLL
- Km [11]: 2.42 µM
- Km [12]: 3.6 µM
